Reference: US20130289083A1, “IDO Inhibitors” (priority 2007, published 2013)
Where two headings read alike, the source gives them in different places.

Experiments:
[1] = molecular target: human IDO (Homo sapiens, UniProt P14902); test: Cell based IDO/kynurenine assay in IDO-293-T-Rex cells; conditions: kynurenine production, 293T cells expressing human IDO
In short: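 293-T-REx cells stably carrying doxycycline-inducible human or murine IDO were incubated with inhibitors in induction medium for 16 h at 37° C. Medium was TCA-treated at 60° C and reacted with p-dimethylaminobenzaldehyde. Kynurenine was quantified by absorbance at 480 nm.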

[2] = test system: IDO-293-T-Rex cells
Protocol: To measure the toxicity of each compound after 16 h incubation with cells, cell viability is measured via a WST-1 assay (Roche) according to instructions from the manufacturer. Briefly, after the incubation with each compound, medium is aspirated and replaced with […] of WST-1 reagent, and incubated 30 min at 37° C. Absorbance at 540 nm is correlated with the number of viable cells. Determination of IC50 (Kynurenine assay) or LD50 (WST-1 assay) is performed via non-linear regression analysis using GraphPad Prism software.
Viability was measure by the WST assay as described in one of the examples.

[3] = molecular target: T1, murine IDO (Mus musculus, UniProt P28776); test: Cell based IDO/kynurenine assay in 293-T-Rex cells expressing murine IDO
T1 construct: expressed in transfected cells; host or cells: 293-T-REx cells (Invitrogen), doxycycline-inducible CMV-tet promoter
T1 sequence (P28776 whole entry): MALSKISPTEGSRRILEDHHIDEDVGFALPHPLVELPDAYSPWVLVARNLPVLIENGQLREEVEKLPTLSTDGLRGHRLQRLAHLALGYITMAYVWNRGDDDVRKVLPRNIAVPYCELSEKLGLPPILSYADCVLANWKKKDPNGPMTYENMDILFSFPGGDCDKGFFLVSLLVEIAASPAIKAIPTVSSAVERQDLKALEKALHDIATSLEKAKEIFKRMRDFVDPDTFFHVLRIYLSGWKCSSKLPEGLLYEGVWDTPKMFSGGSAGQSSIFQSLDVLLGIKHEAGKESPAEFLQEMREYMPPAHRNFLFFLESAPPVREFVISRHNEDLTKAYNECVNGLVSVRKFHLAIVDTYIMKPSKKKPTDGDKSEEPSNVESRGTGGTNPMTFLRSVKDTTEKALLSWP
Protocol: Transfected cells were selected in DBZ medium (DMEM, 10% FBS, 1× Penicillin+Streptomycin, 2 mM L-glutamine, 5 μg/mL blasticidin and 25 μg/ml Zeocin) at 37° C. with a 5% CO2 in air atmosphere. Individual clones were isolated by limiting dilution cloning from these populations.
The cells incubated in Neutral medium serve as negative control of the assay. The cells incubated in Induction medium and without inhibitor serve as the positive control of the assay. The incubation is carried out for 16 h at 37° C. in a cell culture incubator. 200 μL of medium are transferred to U-bottom polypropylene 96-well plates containing 25 μL of 30% TCA, incubated 30 minutes at 60° C. and centrifuged at 3400 g for 5 minutes. 150 μL of the clear supernatant is transferred to a polystyrene 96-well plate containing 50 μL of 4% (w/v) of p-dimethylaminobenzaldehyde in acetic acid, incubated for 10 min. Kynurenine concentration is determined by measuring the absorbance at 480 nm.

[4] = test system: 293-T-Rex cells expressing murine IDO; test: Toxicity / cell viability (LD50) in the murine IDO cell based assay
[5] = molecular target: purified human IDO protein (Homo sapiens, UniProt P14902); test: Enzymatic IDO assay (kynurenine production, absorbance 480 nm); conditions: recombinant human IDO, enzymatic activity
purified human IDO protein, sequence (P14902 whole entry P110S/E119G): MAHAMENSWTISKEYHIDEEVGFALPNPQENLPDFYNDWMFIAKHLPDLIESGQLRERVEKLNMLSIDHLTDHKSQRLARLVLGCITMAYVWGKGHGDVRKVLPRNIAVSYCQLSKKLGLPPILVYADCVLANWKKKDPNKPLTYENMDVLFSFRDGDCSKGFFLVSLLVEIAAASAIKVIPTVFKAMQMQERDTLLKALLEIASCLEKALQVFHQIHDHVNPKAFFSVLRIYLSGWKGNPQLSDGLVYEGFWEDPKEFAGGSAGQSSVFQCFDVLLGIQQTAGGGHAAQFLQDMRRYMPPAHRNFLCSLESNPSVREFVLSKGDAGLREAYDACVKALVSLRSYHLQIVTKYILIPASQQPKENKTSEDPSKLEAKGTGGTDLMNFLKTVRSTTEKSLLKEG

[6] = Table 16, cells expressing murine IDO, read-out: mIDO EC50
[7] = Table 15, cells expressing murine IDO, read-out: mIDO EC50
[8] = Table 16, 50% cell viability loss, WST assay, human IDO cell based assay
[9] = Table 16, cell viability loss, murine IDO cell based assay
[10] = Table 15, 50% cell viability loss, WST assay, human IDO cell based assay
[11] = Table 15, cell viability loss, murine IDO cell based assay

human IDO, sequence (P14902 whole entry): as the sequence (P14902 whole entry P110S/E119G) above, with S110P, G119E counted along it

Row | EC50 [3, 7] [µM] | SMILES | IC50 ([5]; hIDO IC50, Table 16) [µM] | EC50 ([1]; Table 15, read-out: hIDO EC50) [µM] | IC50 ([5]; hIDO IC50, Table 15) [µM] | other results
1 | – | NOCc1cccc(Cl)c1 [compound 1672, O-(3-chlorobenzyl)hydroxylamine] | < 10 | – | – | EC50 ([1]; Table 16, read-out: hIDO EC50): < 10 µM; hIDO LD50 [2]: D (key: A: <10 μM; B: 10-100 μM; C: 100-1000 μM; D>1000 μM); EC50 [3, 6]: < 10 µM; mIDO LD50 [4]: D (key: A: <10 μM; B: 10-100 μM; C: 100-1000 μM; D>1000 μM)
2 | – | NOCc1cc(F)cc(F)c1 [compound 1770, O-(3,5-difluorobenzyl)hydroxylamine] | – | < 10 | < 10 | hIDO LD50 [2]: D (key: A: <10 μM; B: 10-100 μM; C: 100-1000 μM; D>1000 μM); EC50 ([3]; Table 15, printed as a number instead of a range class, read-out: mIDO EC50): 2.3 µM; mIDO LD50 [4]: D (key: A: <10 μM; B: 10-100 μM; C: 100-1000 μM; D>1000 μM)
3 | – | NOCc1ccc(I)cc1 [compound 1818, O-(4-iodobenzyl)hydroxylamine] | < 10 | – | – | EC50 ([1]; Table 16, read-out: hIDO EC50): < 10 µM; hIDO LD50 [2]: D (key: A: <10 μM; B: 10-100 μM; C: 100-1000 μM; D>1000 μM); EC50 [3, 6]: 10 to 100 µM; mIDO LD50 [4]: D (key: A: <10 μM; B: 10-100 μM; C: 100-1000 μM; D>1000 μM)
4 | – | NOCc1ccccc1I [compound 1817, O-(2-iodobenzyl)hydroxylamine] | < 10 | – | – | EC50 ([1]; Table 16, read-out: hIDO EC50): < 10 µM; hIDO LD50 [2]: D (key: A: <10 μM; B: 10-100 μM; C: 100-1000 μM; D>1000 μM); EC50 [3, 6]: 10 to 100 µM; mIDO LD50 [4]: D (key: A: <10 μM; B: 10-100 μM; C: 100-1000 μM; D>1000 μM)
5 | – | NOCc1cc([N+](=O)[O-])cc([N+](=O)[O-])c1 [compound 1657, O-(3,5-dinitrobenzyl)hydroxylamine] | < 10 | – | – | EC50 ([1]; hIDO EC50, Table 16): < 10 µM; hIDO LD50 [2, 8]: D (D>1000 μM); EC50 ([3]; mIDO EC50, Table 16, cells expressing murine IDO): < 10 µM; mIDO LD50 [4, 9]: D (D>1000 μM)
6 | < 10 | N#Cc1cccc(CON)c1 [compound 1873, 3-(aminooxymethyl)benzonitrile] | – | < 10 | < 10 | –
7 | – | NOCc1ccccc1Br [compound 1675, O-(2-bromobenzyl)hydroxylamine] | < 10 | – | – | EC50 ([1]; Table 16, read-out: hIDO EC50): < 10 µM; EC50 [3, 6]: < 10 µM
8 | 10 to 100 | NOCc1cc(Cl)ccc1-c1ccc(C(F)(F)F)cc1 [compound 1917, O-((4-chloro-4′-(trifluoromethyl)biphenyl-2-yl)methyl)hydroxylamine] | – | < 10 | < 10 | –
9 | 10 to 100 | NOCc1ccc2c(c1)OCO2 [compound 1744, O-(benzo[d][1,3]dioxol-5-ylmethyl)hydroxylamine] | – | < 10 | < 10 | –
10 | – | NOCc1cccc(F)c1 [compound 762, O-(3-fluorobenzyl)hydroxylamine] | < 10 | – | – | EC50 ([1]; Table 16, read-out: hIDO EC50): < 10 µM; hIDO LD50 [2, 8]: D (D>1000 μM); EC50 [3, 6]: < 10 µM; mIDO LD50 [4, 9]: D (D>1000 μM)
11 | < 10 | NOCc1cc(F)cc(Cl)c1 [compound 1660, O-(3-chloro-5-fluorobenzyl)hydroxylamine] | – | < 10 | < 10 | –
12 | 10 to 100 | NOC(CC1CCCCC1)c1ccccc1 (stereo not shown) [compound 1925, O-(2-cyclohexyl-1-phenylethyl)hydroxylamine] | – | < 10 | 10 to 100 | –
13 | 100 to 1000 | NOCc1cccc(-c2ccncc2)c1 [compound 1888, O-(3-(pyridin-4-yl)benzyl)hydroxylamine] | – | < 10 | 10 to 100 | –

Row | SMILES | EC50 [3, 7] [µM] | IC50 ([5]; hIDO IC50, Table 16) [µM] | EC50 ([1]; Table 15, read-out: hIDO EC50) [µM] | IC50 ([5]; hIDO IC50, Table 15) [µM] | other results
14 | NOCc1cc(Cl)cc(Cl)c1 [compound 1769, O-(3,5-dichlorobenzyl)hydroxylamine] | < 10 | – | < 10 | < 10 | hIDO LD50 [2]: D (key: A: <10 μM; B: 10-100 μM; C: 100-1000 μM; D>1000 μM); mIDO LD50 [4]: D (key: A: <10 μM; B: 10-100 μM; C: 100-1000 μM; D>1000 μM)
15 | NOCc1ccc2ccccc2c1 [compound 1736, O-(naphthalen-2-ylmethyl)hydroxylamine] | < 10 | – | < 10 | < 10 | hIDO LD50 [2, 10]: D (D>1000 μM); mIDO LD50 [4, 11]: D (D>1000 μM)
16 | NOCc1cccnc1 [compound 1738, O-(pyridin-3-ylmethyl)hydroxylamine] | 10 to 100 | – | < 10 | 10 to 100 | hIDO LD50 [2, 10]: D (D>1000 μM); mIDO LD50 [4, 11]: D (D>1000 μM)
17 | NOCc1c[nH]c2ccccc12 [compound 1742, O-((1H-indol-3-yl)methyl)hydroxylamine] | < 10 | – | < 10 | 10 to 100 | hIDO LD50 [2, 10]: D (D>1000 μM); mIDO LD50 [4, 11]: D (D>1000 μM)
18 | N#Cc1ccc(CON)cc1 [compound 1896, 4-(aminooxymethyl)benzonitrile] | 10 to 100 | – | < 10 | < 10 | hIDO LD50 [2, 10]: D (D>1000 μM); mIDO LD50 [4, 11]: D (D>1000 μM)
